Laboratory results taken from patent publication US20090053138A1, “Stabilized Aptamers to Platelet Derived Growth Factor and their Use as Oncology Therapeutics” (priority 2002, published 2009).
[invdT] = inverted (3'-3') thymidine

What was measured:
[1] = tested on: HT29 colon cancer xenograft; assay: HT29 colon cancer xenograft model; type: in vivo, Nu/Nu mice; details: GLEEVEC 50 mg/kg orally BID Qd5 + irinotecan 150 mg/kg weekly vs irinotecan alone
[2] = tested on: HCT-116 tumor; details: irinotecan 100 mg/kg plus Gleevec 50 mg/kg orally twice a day
Description: Each group was assigned to a treatment regimen as follows. […] Doses were adjusted for changing body weight twice per week and all mice were dosed with vehicle or aptamer at 10 ml of dosing solution per kg body weight given intraperitoneally. […] Groups 3, 10 and 11 were dosed with vehicle intraperitinoneally once per day from days 8-25. Groups 3, 5, 7, 8, and 9 were dosed on day 11, 18 and 25 with irintoecan (100 mg/kg, intraperitoneally). […] Group 11 was dosed on day 11 and 25 with irintoecan (100 mg/kg, intraperitoneally) and twice a day with imatinib at 50 mg/kg given orally on days 8-12 and 23-25.
The aptamer was allowed to come to room temperature for an hour before dosing. Unused material was stored at 4° C. for use the next day. Normal saline for the vehicle control was sterile filtered into sample vials and stored in the same manner as the aptamer dosing solutions. Aptamer and vehicle dosing solutions were coded so that the personnel dosing were blinded from their identity.

[3] = tested on: LS174T colon cancer xenograft; details: Monday through Friday
Text: Experimental overview. Human HT-29 or LS174T colon cancer xenotransplants were established in athymic nude mice (Nu/Nu mice, Charles River Labs, Wilmington, Mass.) by injecting mice with 1×10^7 HT29 cells (ATCC, Manassas, Va.), or 2×10^6 LS174T cells (ATCC Manassas, Va.) sub-cutaneously and allowing the tumors to grow for 5 days. On day 5, two dimensional measurements of the established tumors were taken using a digital caliper. Once tumor measurements were taken, the mice were randomized into groups such that the average tumor size was the same in each group. […]
A third experiment (Experiment 3) was designed to test ARC308/irinotecan and GLEEVEC™/irinotecan dosing regimens in a colon cancer xenotransplant model using human colon carcinoma cell line LS174T (ATCC). […] ARC308 was dosed via intraperitoneal delivery at 50 mg/kg once daily, and GLEEVEC™ was dosed at 50 mg/kg once daily, Monday through Friday. ARC308 prevents PDGF-BB from binding the PDGF receptor; this molecule has a 30K PEG attached. […] The results are statistically significant (two tailed students T-test).
An efficacy analysis of three treatment groups in this study is shown in Table 10 in terms of log cell kill and log cell kill net. Log cell kill is the log(base10) of the number of tumor cells before treatment divided by the number of cells after treatment. […] A fourth experiment (Experiment 4) was designed to further test ARC308/irinotecan dosing regimens in a colon cancer xenotransplant model using human colon carcinoma cell line LS174T (ATCC). […]

[4] = target: PDGF BB (Homo sapiens, UniProt P01127); assay: Binding of ARC124 to PDGF BB
Sequence of PDGF BB (P01127 82-190 limits assumed): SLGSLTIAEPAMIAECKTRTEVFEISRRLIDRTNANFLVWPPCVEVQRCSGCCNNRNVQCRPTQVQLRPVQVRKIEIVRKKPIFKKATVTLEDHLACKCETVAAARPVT

[5] = target: PDGF AB (Homo sapiens, UniProt P01127); assay: Binding of ARC124 to PDGF AB
Sequence of PDGF AB (P01127 82-190 limits assumed, other chains not shown): as the sequence (P01127 82-190 limits assumed) above

| Compound | efficacy of irinotecan (rate of tumor growth) [1] | mice dead by day 17 [2] | tolerability of dosing regimen ([3]; Experiment 2: GLEEVEC 100 mg/kg once daily, P.O.) | efficacy of irinotecan (rate of tumor growth) ([3]; Experiment 3: GLEEVEC 50 mg/kg once daily, P.O + irinotecan) | Kd [4] [nM] | Kd [5] [nM] |
| --- | --- | --- | --- | --- | --- | --- |
| Cc1ccc(NC(=O)c2ccc(CN3CCN(C)CC3)cc2)cc1Nc1nccc(-c2cccnc2)n1 [GLEEVEC™, imatinib, reference compound] | enhanced the efficacy of irinotecan treatment | 4 of 12 | made the animals moribund | did not enhance the efficacy of Irinotecan |  |  |
| 5′ CACAGGCTACGGCACGTAGAGCATCACCATGATCCTGTG-3′InvdT (SEQ ID NO:11) (DNA, 3' [invdT], backbone not given here) [ARC124] |  |  |  |  | ~0.1 | ~0.1 |
